Reference: ChEMBL document CHEMBL5550106, “Recent advances in the exploration of oxazolidinone scaffolds from compound development to antibacterial agents and other bioactivities” (Eur J Med Chem, 2024)
Values after ≈ are worked out from the molar mass of the structure shown.

Key:
Escherichia coli [1] = assay: Antibacterial activity against efflux pump-efficient Escherichia coli MG1655 assessed as bacterial growth inhibition; assay type: functional
Escherichia coli [2] = assay: Antimicrobial activity against wild type Escherichia coli MG1655 assessed as inhibition of microbial growth; assay type: functional
Staphylococcus aureus = assay: Antibacterial activity against Staphylococcus aureus assessed as reduction in bacterial growth incubated for 24 hrs by broth microdilution method; assay type: functional
Escherichia coli [3] = assay: Antibacterial activity against Escherichia coli MG1655 in presence of polymyxin B nonapeptide; assay type: functional
L02 = assay: Antiproliferative activity against human L02 cells assessed as inhibition of cell growth incubated for 24 hrs by MTT assay; assay type: functional, cell-based; conditions: L02, 24 h
MGC-803 = assay: Antiproliferative activity against human MGC-803 cells assessed as reduction in cell growth by MTT assay; assay type: functional, cell-based
NCI-H460 = assay: Antiproliferative activity against human NCI-H460 cells assessed as inhibition of cell growth by MTT assay; assay type: functional, cell-based
SK-OV-3 = assay: Antiproliferative activity against human SK-OV-3 cells assessed as reduction in cell viability incubated for 24 hrs by CCK8 assay; assay type: functional, cell-based; conditions: SK-OV-3, 24 h

| Compound | MIC (Escherichia coli [1]) [µg/mL] | MIC (Escherichia coli [2]) [µg/mL] | MIC (Staphylococcus aureus) [µg/mL] | MIC (Escherichia coli [3]) [µg/mL] | IC50 (L02) [µM] | IC50 (MGC-803) [µM] | IC50 (NCI-H460) [µM] | IC50 (SK-OV-3) [µM] |
| --- | --- | --- | --- | --- | --- | --- | --- | --- |
| NCc1ccc(-c2ccc(N3C[C@H](CO)OC3=O)cc2F)cc1O | 8 (≈ 24.1 µM) | 84 | 2.8 (≈ 8.43 µM) | 32 | – | – | – | – |
| O=C1O[C@@H](CO)CN1c1ccc(-c2ccc([N+](=O)[O-])c(O)c2)c(F)c1 | 64 (≈ 184 µM) | 64 | 0.5 (≈ 1.44 µM) | 64 | – | – | – | – |
| O=C1O[C@@H](CO)CN1c1ccc(-c2ccccc2)c(F)c1 | 16 (≈ 55.7 µM) | > 64 | 1 (≈ 3.48 µM) | 16 | – | – | – | – |
| Cc1ccccc1NCC(O)COC(=O)[C@]1(C)CCC[C@]2(C)c3ccc(C(C)C)cc3CCC12 (stereo not given in full) | – | – | – | – | ≥ 28.3 | 7.1 | ≥ 15.6 | ≥ 14.9 |
| CC(C)c1ccc2c(c1)CCC1[C@](C)(C(=O)OCC(O)CNc3ccc(Br)cc3)CCC[C@]21C (stereo not given in full) | – | – | – | – | ≥ 28.3 | 7.1 | ≥ 15.6 | ≥ 14.9 |
| CC(C)c1ccc2c(c1)CCC1[C@](C)(C(=O)OCC(O)CNc3cccc(Cl)c3)CCC[C@]21C (stereo not given in full) | – | – | – | – | ≥ 28.3 | 7.1 | ≥ 15.6 | ≥ 14.9 |
| CC(C)c1ccc2c(c1)CCC1[C@](C)(C(=O)OCC3CN(c4ccccc4F)C(=O)O3)CCC[C@]21C (stereo not given in full) | – | – | – | – | ≥ 26.4 | 3.82 | ≥ 4.3 | ≥ 4.1 |
| C#Cc1cccc(NCC(O)COC(=O)[C@]2(C)CCC[C@]3(C)c4ccc(C(C)C)cc4CCC23)c1 (stereo not given in full) | – | – | – | – | ≥ 28.3 | 7.1 | ≥ 15.6 | ≥ 14.9 |
| COc1cccc(N2CC(COC(=O)[C@]3(C)CCC[C@]4(C)c5ccc(C(C)C)cc5CCC34)OC2=O)c1 (stereo not given in full) | – | – | – | – | ≥ 26.4 | 3.82 | ≥ 4.3 | ≥ 4.1 |
| CC(C)c1ccc2c(c1)CCC1[C@](C)(C(=O)OCC3CN(c4ccc(Cl)cc4)C(=O)O3)CCC[C@]21C (stereo not given in full) | – | – | – | – | ≥ 26.4 | 3.82 | ≥ 4.3 | ≥ 4.1 |
| COc1ccccc1N1CC(COC(=O)[C@]2(C)CCC[C@]3(C)c4ccc(C(C)C)cc4CCC23)OC1=O (stereo not given in full) | – | – | – | – | ≥ 26.4 | 3.82 | ≥ 4.3 | ≥ 4.1 |
| O=Cc1ccc(-c2ccc(N3C[C@H](CO)OC3=O)cc2F)cc1O | 16 (≈ 48.3 µM) | 128 | < 0.5 | 8 | – | – | – | – |
| Cc1ccc(NCC(O)COC(=O)[C@]2(C)CCC[C@]3(C)c4ccc(C(C)C)cc4CCC23)cc1 (stereo not given in full) | – | – | – | – | ≥ 28.3 | 7.1 | ≥ 15.6 | ≥ 14.9 |
| CC(C)c1ccc2c(c1)CCC1[C@](C)(C(=O)OCC3CN(c4cccc(Cl)c4)C(=O)O3)CCC[C@]21C (stereo not given in full) | – | – | – | – | ≥ 26.4 | 3.82 | ≥ 4.3 | ≥ 4.1 |
| CC(C)c1ccc2c(c1)CCC1[C@](C)(C(=O)OCC(O)CNc3ccc(F)cc3)CCC[C@]21C (stereo not given in full) | – | – | – | – | ≥ 28.3 | 7.1 | ≥ 15.6 | ≥ 14.9 |
| CC(C)c1ccc2c(c1)CCC1[C@](C)(C(=O)OCC3CN(c4ccc(F)cc4)C(=O)O3)CCC[C@]21C (stereo not given in full) | – | – | – | – | ≥ 26.4 | 3.82 | ≥ 4.3 | ≥ 4.1 |
| Cc1cccc(N2CC(COC(=O)[C@]3(C)CCC[C@]4(C)c5ccc(C(C)C)cc5CCC34)OC2=O)c1 (stereo not given in full) | – | – | – | – | ≥ 26.4 | 3.82 | ≥ 4.3 | ≥ 4.1 |
| CC(C)c1ccc2c(c1)CCC1[C@](C)(C(=O)OCC3CN(c4ccccc4)C(=O)O3)CCC[C@]21C (stereo not given in full) | – | – | – | – | ≥ 26.4 | 3.82 | ≥ 4.3 | ≥ 4.1 |
| Cc1ccccc1N1CC(COC(=O)[C@]2(C)CCC[C@]3(C)c4ccc(C(C)C)cc4CCC23)OC1=O (stereo not given in full) | – | – | – | – | ≥ 26.4 | 3.82 | ≥ 4.3 | ≥ 4.1 |
| C#Cc1cccc(N2CC(COC(=O)[C@]3(C)CCC[C@]4(C)c5ccc(C(C)C)cc5CCC34)OC2=O)c1 (stereo not given in full) | – | – | – | – | ≥ 26.4 | 3.82 | ≥ 4.3 | ≥ 4.1 |

| Compound | MIC (Escherichia coli [1]) [µg/mL] | MIC (Escherichia coli [2]) [µg/mL] | MIC (Staphylococcus aureus) [µg/mL] | MIC (Escherichia coli [3]) [µg/mL] | IC50 (L02) [µM] | IC50 (MGC-803) [µM] | IC50 (NCI-H460) [µM] | IC50 (SK-OV-3) [µM] |
| --- | --- | --- | --- | --- | --- | --- | --- | --- |
| Nc1cc(-c2ccc(N3C[C@H](CO)OC3=O)cc2F)ccc1O | 16 (≈ 50.3 µM) | > 64 | 4 (≈ 12.6 µM) | 64 | – | – | – | – |
| COc1ccc(N2CC(COC(=O)[C@]3(C)CCC[C@]4(C)c5ccc(C(C)C)cc5CCC34)OC2=O)cc1 (stereo not given in full) | – | – | – | – | ≥ 26.4 | 3.82 | ≥ 4.3 | ≥ 4.1 |
| CC(C)c1ccc2c(c1)CCC1[C@](C)(C(=O)OCC3CN(c4ccc(Br)cc4)C(=O)O3)CCC[C@]21C (stereo not given in full) | – | – | – | – | ≥ 26.4 | 3.82 | ≥ 4.3 | ≥ 4.1 |
| N#Cc1ccc(O)cc1-c1ccc(N2C[C@H](CO)OC2=O)cc1F | 64 (≈ 195 µM) | > 256 | 32 (≈ 97.5 µM) | 128 | – | – | – | – |
| COc1cccc(NCC(O)COC(=O)[C@]2(C)CCC[C@]3(C)c4ccc(C(C)C)cc4CCC23)c1 (stereo not given in full) | – | – | – | – | ≥ 28.3 | 7.1 | ≥ 15.6 | ≥ 14.9 |
| O=C1O[C@@H](CO)CN1c1ccc(-c2cc(O)ccc2F)c(F)c1 | 16 (≈ 49.8 µM) | > 256 | 2 (≈ 6.23 µM) | 16 | – | – | – | – |
| COc1ccccc1NCC(O)COC(=O)[C@]1(C)CCC[C@]2(C)c3ccc(C(C)C)cc3CCC12 (stereo not given in full) | – | – | – | – | ≥ 28.3 | 7.1 | ≥ 15.6 | ≥ 14.9 |
| Cc1ccc(N2CC(COC(=O)[C@]3(C)CCC[C@]4(C)c5ccc(C(C)C)cc5CCC34)OC2=O)cc1 (stereo not given in full) | – | – | – | – | ≥ 26.4 | 3.82 | ≥ 4.3 | ≥ 4.1 |
| O=C1O[C@@H](CO)CN1c1ccc(-c2cccc(O)c2F)c(F)c1 | 32 (≈ 99.6 µM) | > 256 | 2 (≈ 6.23 µM) | 32 | – | – | – | – |
| Cc1cccc(NCC(O)COC(=O)[C@]2(C)CCC[C@]3(C)c4ccc(C(C)C)cc4CCC23)c1 (stereo not given in full) | – | – | – | – | ≥ 28.3 | 7.1 | ≥ 15.6 | ≥ 14.9 |
| Nc1ccc(-c2ccc(N3C[C@H](CO)OC3=O)cc2F)cc1O | 32 (≈ 101 µM) | > 64 | 4 (≈ 12.6 µM) | 32 | – | – | – | – |
| COc1ccc(NCC(O)COC(=O)[C@]2(C)CCC[C@]3(C)c4ccc(C(C)C)cc4CCC23)cc1 (stereo not given in full) | – | – | – | – | ≥ 28.3 | 7.1 | ≥ 15.6 | ≥ 14.9 |
| CC(C)c1ccc2c(c1)CCC1[C@](C)(C(=O)OCC(O)CNc3cccc(F)c3)CCC[C@]21C (stereo not given in full) | – | – | – | – | ≥ 28.3 | 7.1 | ≥ 15.6 | ≥ 14.9 |
| CC(C)c1ccc2c(c1)CCC1[C@](C)(C(=O)OCC(O)CNc3ccccc3)CCC[C@]21C (stereo not given in full) | – | – | – | – | ≥ 28.3 | 7.1 | ≥ 15.6 | ≥ 14.9 |
| CC(C)c1ccc2c(c1)CCC1[C@](C)(C(=O)OCC(O)CNc3ccccc3F)CCC[C@]21C (stereo not given in full) | – | – | – | – | ≥ 28.3 | 7.1 | ≥ 15.6 | ≥ 14.9 |
| CC(C)c1ccc2c(c1)CCC1[C@](C)(C(=O)OCC(O)CNc3cccc(Br)c3)CCC[C@]21C (stereo not given in full) | – | – | – | – | ≥ 28.3 | 7.1 | ≥ 15.6 | ≥ 14.9 |
| CC(C)c1ccc2c(c1)CCC1[C@](C)(C(=O)OCC(O)CNc3ccc(Cl)cc3)CCC[C@]21C (stereo not given in full) | – | – | – | – | ≥ 28.3 | 7.1 | ≥ 15.6 | ≥ 14.9 |
| CC(C)c1ccc2c(c1)CCC1[C@](C)(C(=O)OCC3CN(c4cccc(F)c4)C(=O)O3)CCC[C@]21C (stereo not given in full) | – | – | – | – | ≥ 26.4 | 3.82 | ≥ 4.3 | ≥ 4.1 |
| O=C1O[C@@H](CO)CN1c1ccc(-c2ccc(F)c(O)c2)c(F)c1 | 16 (≈ 49.8 µM) | > 64 | 2 (≈ 6.23 µM) | 16 | – | – | – | – |
| CC(C)c1ccc2c(c1)CCC1[C@](C)(C(=O)OCC3CN(c4cccc(Br)c4)C(=O)O3)CCC[C@]21C (stereo not given in full) | – | – | – | – | ≥ 26.4 | 3.82 | ≥ 4.3 | ≥ 4.1 |
